Test results taken from the supplement of paper PMC4862054.

Assays:
Details in all cases: 72 h
[1] = system: CAL-148
Procedure: (§1)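 Drug sensitivity and resistance testing (DSRT) of breast cancer cell lines in 384-well plates, 5 concentrations in 10-fold dilutions over a compound-specific 10,000-fold range. After 72 h, cytotoxicity was read by CellTox Green fluorescence and viability by CellTiter-Glo luminescence (multiplexed), normalised to DMSO and benzethonium chloride controls. EC50 is the inflection point of the fitted dose-response curve (bottom asymptote free, so it can be relative for partial curves) and is censored at the highest tested concentration. Rows with DSS 0 (no meaningful response) were excluded.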

[2] = system: SK-BR-3
How it was run: (§2)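 Seeding of breast cancer cell lines (20 µl suspension) was done into 384-well plates pre-loaded with compound at 5 concentrations, 10-fold apart, covering a compound-specific 10,000-fold range. The plates were incubated for 72 h, read for CellTox Green fluorescence (485/520 nm), and then read for CellTiter-Glo luminescence after 10 min at room temperature. Every plate was normalised to 0.1 % DMSO and a positive kill control. Curve fitting gave the EC50, censored at the top concentration.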

[3] = system: HCC1599
How it was run: as §2

[4] = system: Hs578T
How it was run: as §2

[5] = system: MDA-MB-453
How it was run: as §2

[6] = system: CAL-85-1
How it was run: as §2

[7] = system: CAL-120
How it was run: as §2

[8] = system: MFM-223
How it was run: as §2

[9] = system: HDQ-P1
How it was run: (§3)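 The reported EC50 was fitted from percent-inhibition dose-response curves and censored at the highest concentration. Breast cancer cell lines (20 µl suspension) were added to 384-well plates containing compound in 5 µl medium and incubated 72 h, and viability was read with 2.5 µl CellTiter-Blue over 2 h at 37 °C at 560/590 nm. Each plate was normalised to vehicle and a positive kill control and checked by Z'-factor, and rows with zero drug sensitivity score were dropped.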

[10] = system: MDA-MB-453; remark: listed apart in the source
How it was run: as §3

[11] = system: CAL-51
How it was run: as §3

[12] = system: HDQ-P1; remark: listed apart in the source
How it was run: as §2

[13] = system: MCF-10A
How it was run: as §2

[14] = system: HCC1937
How it was run: as §2

[15] = system: MDA-MB-231
How it was run: as §2

[16] = system: CAL-120; remark: listed apart in the source
How it was run: as §3

[17] = system: SK-BR-3; remark: listed apart in the source
How it was run: as §3

[18] = system: HCC1599; remark: listed apart in the source
How it was run: as §3

[19] = system: Hs578T; remark: listed apart in the source
How it was run: as §3

[20] = system: BT-474
How it was run: as §3

[21] = system: BT-549
How it was run: as §3

[22] = system: MDA-MB-231; remark: listed apart in the source
How it was run: as §3

[23] = system: MFM-223; remark: listed apart in the source
How it was run: as §3

[24] = system: Hs578T; remark: listed apart in the source
Procedure: as §1

[25] = system: MCF-10A; remark: listed apart in the source
Procedure: as §1

[26] = system: MDA-MB-231; remark: listed apart in the source
Procedure: as §1

[27] = system: CAL-148; remark: listed apart in the source
How it was run: as §3

[28] = system: CAL-148; remark: listed apart in the source
How it was run: as §2

[29] = system: HCC1937; remark: listed apart in the source
How it was run: as §3

[30] = system: CAL-51; remark: listed apart in the source
Procedure: as §1

[31] = system: MDA-MB-436
Procedure: as §1

[32] = system: DU-4475
How it was run: as §3

[33] = system: CAL-85-1; remark: listed apart in the source
How it was run: as §3

[34] = system: BT-474; remark: listed apart in the source
How it was run: as §2

[35] = system: DU-4475; remark: listed apart in the source
How it was run: as §2

[36] = system: CAL-51; remark: listed apart in the source
How it was run: as §2

[37] = system: MDA-MB-436; remark: listed apart in the source
How it was run: as §2

[38] = system: BT-549; remark: listed apart in the source
How it was run: as §2

[39] = system: MDA-MB-468
How it was run: as §2

[40] = system: HCC1143
How it was run: as §2

[41] = system: MDA-MB-436; remark: listed apart in the source
How it was run: as §3

[42] = system: MDA-MB-468; remark: listed apart in the source
How it was run: as §3

[43] = system: HCC1143; remark: listed apart in the source
How it was run: as §3

## Cc1cnc(NC(=O)Nc2cc(Br)c(C)cc2OC[C@@H]2CNCCO2)cn1 [Rabusertib]
[1]
  EC50, CellTox Green: > 1000 nM
[2]
  EC50, CellTiter-Glo: 918 nM
[3]
  EC50, CellTiter-Glo: 691 nM
[4]
  EC50, CellTiter-Glo: 354 nM
[5]
  EC50, CellTiter-Glo: 219 nM
[6]
  EC50, CellTiter-Glo: > 1000 nM

## CNC(=O)c1cc(Oc2ccc(NC(=O)Nc3cc(C(C)(C)C)nn3-c3ccc4ncccc4c3)c(F)c2)ccn1 [Rebastinib]
[7]
  EC50, CellTiter-Glo: 155 nM
[8]
  EC50, CellTiter-Glo: 31.3 nM

## COc1cc2nccc(Oc3ccc(NC(=O)Nc4cc(C)on4)c(Cl)c3)c2cc1OC [Tivozanib]
[9]
  EC50, CellTiter-Blue viability: 774 nM
[10]
  EC50, CellTiter-Blue viability: 2320 nM
[11]
  EC50, CellTiter-Blue viability: 7800 nM
[12]
  EC50, CellTiter-Glo: 3820 nM
[5]
  EC50, CellTiter-Glo: 5050 nM
[13]
  EC50, CellTiter-Glo: 8730 nM
[14]
  EC50, CellTiter-Glo: > 10000 nM
[15]
  EC50, CellTiter-Glo: 8500 nM
[8]
  EC50, CellTiter-Glo: 1820 nM
[16]
  EC50, CellTiter-Blue viability: 4610 nM
[17]
  EC50, CellTiter-Blue viability: 4270 nM
[18]
  EC50, CellTiter-Blue viability: 4650 nM
[19]
  EC50, CellTiter-Blue viability: 4590 nM
[20]
  EC50, CellTiter-Blue viability: 2500 nM
[21]
  EC50, CellTiter-Blue viability: 7350 nM
[22]
  EC50, CellTiter-Blue viability: 6790 nM
[23]
  EC50, CellTiter-Blue viability: 344 nM

## CC1=C(/C=C/C(C)=C/C=C/C(C)=C/C(=O)O)C(C)(C)CCC1 [Tretinoin]
[24]
  EC50, CellTox Green: 130 nM
[25]
  EC50, CellTox Green: 676 nM
[26]
  EC50, CellTox Green: 3200 nM
[27]
  EC50, CellTiter-Blue viability: 43.5 nM
[2]
  EC50, CellTiter-Glo: 2210 nM
[28]
  EC50, CellTiter-Glo: 354 nM
[3]
  EC50, CellTiter-Glo: 5530 nM
[4]
  EC50, CellTiter-Glo: 6610 nM
[5]
  EC50, CellTiter-Glo: 3230 nM
[13]
  EC50, CellTiter-Glo: 1990 nM
[15]
  EC50, CellTiter-Glo: 2600 nM
[17]
  EC50, CellTiter-Blue viability: 731 nM
[18]
  EC50, CellTiter-Blue viability: 133 nM

## C1CN1c1nc(N2CC2)nc(N2CC2)n1 [Triethylenemelamine]
[27]
  EC50, CellTiter-Blue viability: 3220 nM
[10]
  EC50, CellTiter-Blue viability: 9220 nM
[21]
  EC50, CellTiter-Blue viability: 9400 nM
[22]
  EC50, CellTiter-Blue viability: 698 nM

## Oc1ncc(N(CCCl)CCCl)c(O)n1 [Uracil mustard]
[29]
  EC50, CellTiter-Blue viability: 962 nM

## CCCCC(=O)OCC(=O)[C@]1(O)Cc2c(O)c3c(c(O)c2[C@@H](O[C@H]2C[C@H](NC(=O)C(F)(F)F)[C@H](O)[C@H](C)O2)C1)C(=O)c1c(OC)cccc1C3=O [Valrubicin]
[1]
  EC50, CellTox Green: 46.5 nM
[30]
  EC50, CellTox Green: 26.1 nM
[31]
  EC50, CellTox Green: > 5000 nM
[27]
  EC50, CellTiter-Blue viability: 123 nM
[9]
  EC50, CellTiter-Blue viability: 236 nM
[10]
  EC50, CellTiter-Blue viability: 830 nM
[32]
  EC50, CellTiter-Blue viability: 65.5 nM
[11]
  EC50, CellTiter-Blue viability: 148 nM
[33]
  EC50, CellTiter-Blue viability: 1170 nM
[2]
  EC50, CellTiter-Glo: 343 nM
[28]
  EC50, CellTiter-Glo: 322 nM
[12]
  EC50, CellTiter-Glo: 661 nM
[3]
  EC50, CellTiter-Glo: 3220 nM
[4]
  EC50, CellTiter-Glo: 944 nM
[5]
  EC50, CellTiter-Glo: 3050 nM
[13]
  EC50, CellTiter-Glo: 746 nM
[34]
  EC50, CellTiter-Glo: 2640 nM
[35]
  EC50, CellTiter-Glo: 462 nM
[36]
  EC50, CellTiter-Glo: 162 nM
[6]
  EC50, CellTiter-Glo: 1340 nM
[14]
  EC50, CellTiter-Glo: 629 nM
[37]
  EC50, CellTiter-Glo: 311 nM
[38]
  EC50, CellTiter-Glo: 794 nM
[15]
  EC50, CellTiter-Glo: 4480 nM
[39]
  EC50, CellTiter-Glo: 290 nM
[40]
  EC50, CellTiter-Glo: 697 nM
[8]
  EC50, CellTiter-Glo: 4320 nM
[16]
  EC50, CellTiter-Blue viability: 281 nM
[17]
  EC50, CellTiter-Blue viability: 170 nM
[18]
  EC50, CellTiter-Blue viability: 2320 nM
[19]
  EC50, CellTiter-Blue viability: 1230 nM
[20]
  EC50, CellTiter-Blue viability: 916 nM
[29]
  EC50, CellTiter-Blue viability: 211 nM
[41]
  EC50, CellTiter-Blue viability: 1520 nM
[21]
  EC50, CellTiter-Blue viability: 1090 nM
[22]
  EC50, CellTiter-Blue viability: 721 nM
[42]
  EC50, CellTiter-Blue viability: 369 nM
[43]
  EC50, CellTiter-Blue viability: 525 nM
[23]
  EC50, CellTiter-Blue viability: 2810 nM
